Results reported in patent US9476053B2, “Methods and compositions for inhibition of immune responses and autoimmunity” (Dynavax Technologies Corporation, priority 2007, dated 2016).
Read-outs that look alike come from different tables or passages of the source.

Tests used:
[1] = target: T1, TLR7 (Homo sapiens, UniProt Q9NYK1); test: TLR7 dependent cell responses (statement in description); type: cell-based
T1 sequence (Q9NYK1 27-1049): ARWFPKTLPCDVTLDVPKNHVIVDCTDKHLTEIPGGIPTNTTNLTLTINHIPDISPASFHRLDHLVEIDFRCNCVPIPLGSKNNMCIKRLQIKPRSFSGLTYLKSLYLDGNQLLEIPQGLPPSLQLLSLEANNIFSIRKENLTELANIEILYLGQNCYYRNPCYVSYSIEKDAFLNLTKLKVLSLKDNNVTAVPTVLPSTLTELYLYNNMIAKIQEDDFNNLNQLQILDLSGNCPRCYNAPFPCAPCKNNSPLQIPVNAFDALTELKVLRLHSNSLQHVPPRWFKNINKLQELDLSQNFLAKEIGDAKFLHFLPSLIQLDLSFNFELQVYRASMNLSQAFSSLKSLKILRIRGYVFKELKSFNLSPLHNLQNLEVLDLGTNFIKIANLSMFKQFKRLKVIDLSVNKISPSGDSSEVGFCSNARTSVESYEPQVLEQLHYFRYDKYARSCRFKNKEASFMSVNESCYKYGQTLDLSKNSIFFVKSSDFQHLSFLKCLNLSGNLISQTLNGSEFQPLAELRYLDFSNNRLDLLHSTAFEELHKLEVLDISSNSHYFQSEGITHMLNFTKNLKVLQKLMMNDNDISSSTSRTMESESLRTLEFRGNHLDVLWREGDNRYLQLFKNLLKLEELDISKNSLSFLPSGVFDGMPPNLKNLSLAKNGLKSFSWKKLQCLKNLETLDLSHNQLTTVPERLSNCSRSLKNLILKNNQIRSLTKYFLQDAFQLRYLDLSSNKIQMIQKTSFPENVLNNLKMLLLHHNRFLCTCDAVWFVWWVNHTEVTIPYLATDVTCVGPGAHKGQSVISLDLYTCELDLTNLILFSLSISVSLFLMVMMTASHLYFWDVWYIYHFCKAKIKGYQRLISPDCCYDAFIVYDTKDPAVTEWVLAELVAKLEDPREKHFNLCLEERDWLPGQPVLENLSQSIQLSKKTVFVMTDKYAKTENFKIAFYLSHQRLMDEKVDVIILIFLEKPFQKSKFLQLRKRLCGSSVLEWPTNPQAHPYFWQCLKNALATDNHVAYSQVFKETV

[2] = target: T2, TLR9 (Homo sapiens, UniProt Q9NR96); test: TLR9 dependent cell responses (statement in description); type: cell-based
T2 sequence (Q9NR96 26-1032): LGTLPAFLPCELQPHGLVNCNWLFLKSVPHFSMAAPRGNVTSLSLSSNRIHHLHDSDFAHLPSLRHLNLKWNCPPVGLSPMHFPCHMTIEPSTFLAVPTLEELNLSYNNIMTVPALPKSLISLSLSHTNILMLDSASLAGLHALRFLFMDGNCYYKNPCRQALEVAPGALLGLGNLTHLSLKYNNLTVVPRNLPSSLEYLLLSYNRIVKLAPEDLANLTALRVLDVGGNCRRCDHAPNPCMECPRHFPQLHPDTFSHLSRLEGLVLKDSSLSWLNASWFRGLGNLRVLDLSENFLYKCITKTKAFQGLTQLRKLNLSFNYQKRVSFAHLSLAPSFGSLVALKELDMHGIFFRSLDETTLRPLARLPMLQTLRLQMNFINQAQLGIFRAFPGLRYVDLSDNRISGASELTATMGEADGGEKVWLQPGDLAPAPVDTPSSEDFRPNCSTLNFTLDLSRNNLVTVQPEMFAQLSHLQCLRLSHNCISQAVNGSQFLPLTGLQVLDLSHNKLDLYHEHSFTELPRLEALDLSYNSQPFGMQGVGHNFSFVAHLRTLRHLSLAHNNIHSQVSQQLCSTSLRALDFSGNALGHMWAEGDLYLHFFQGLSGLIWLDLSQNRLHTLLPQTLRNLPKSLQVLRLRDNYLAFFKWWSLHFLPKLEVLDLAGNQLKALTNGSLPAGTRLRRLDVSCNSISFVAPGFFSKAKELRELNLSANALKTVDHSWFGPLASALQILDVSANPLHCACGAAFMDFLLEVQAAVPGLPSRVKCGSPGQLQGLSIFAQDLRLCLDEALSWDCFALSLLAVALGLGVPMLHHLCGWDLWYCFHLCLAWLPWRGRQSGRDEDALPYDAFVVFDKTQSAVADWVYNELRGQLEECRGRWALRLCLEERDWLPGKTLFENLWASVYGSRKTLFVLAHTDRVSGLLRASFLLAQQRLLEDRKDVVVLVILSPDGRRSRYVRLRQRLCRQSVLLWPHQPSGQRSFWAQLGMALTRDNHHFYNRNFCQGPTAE

[3] = Solubility of spacer measured as dialcohol precursor; type: physicochemical; conditions: dodecyl spacer measured as dialcohol precursor
Procedure: Thus, the definition of spacers excludes microcarriers or nanocarriers. In addition, a spacer moiety that has low solubility, such as a dodecyl spacer (solubility <5 mg/ml when measured as dialcohol precursor 1,12-dihydroxydodecane) is not preferred because it can reduce the hydrophilicity and activity of the IRC. Preferably, spacer moieties have solubility much greater than 5 mg/ml (e.g., 20 mg/ml, ≦50 mg/ml or 100 mg/ml) when measured as dialcohol precursors.

[4] = tested on: plasmacytoid dendritic cells (PDCs); type: cell-based, human; conditions: read-out: concentration of hydroxycortisone necessary to achieve 50% death of PDCs
[5] = target: T3, TLR7 (Mus musculus, UniProt P58681); test: Mouse splenocytes stimulated with R848 (TLR7 ligand), IL-6 by immunoassay; type: cell-based
T3 construct: The dispersed splenocytes were pelleted by centrifugation, then resuspended in fresh medium; endogenous in cells; host or cells: primary splenocytes of BALB/c mice
T3 sequence (P58681 27-1050): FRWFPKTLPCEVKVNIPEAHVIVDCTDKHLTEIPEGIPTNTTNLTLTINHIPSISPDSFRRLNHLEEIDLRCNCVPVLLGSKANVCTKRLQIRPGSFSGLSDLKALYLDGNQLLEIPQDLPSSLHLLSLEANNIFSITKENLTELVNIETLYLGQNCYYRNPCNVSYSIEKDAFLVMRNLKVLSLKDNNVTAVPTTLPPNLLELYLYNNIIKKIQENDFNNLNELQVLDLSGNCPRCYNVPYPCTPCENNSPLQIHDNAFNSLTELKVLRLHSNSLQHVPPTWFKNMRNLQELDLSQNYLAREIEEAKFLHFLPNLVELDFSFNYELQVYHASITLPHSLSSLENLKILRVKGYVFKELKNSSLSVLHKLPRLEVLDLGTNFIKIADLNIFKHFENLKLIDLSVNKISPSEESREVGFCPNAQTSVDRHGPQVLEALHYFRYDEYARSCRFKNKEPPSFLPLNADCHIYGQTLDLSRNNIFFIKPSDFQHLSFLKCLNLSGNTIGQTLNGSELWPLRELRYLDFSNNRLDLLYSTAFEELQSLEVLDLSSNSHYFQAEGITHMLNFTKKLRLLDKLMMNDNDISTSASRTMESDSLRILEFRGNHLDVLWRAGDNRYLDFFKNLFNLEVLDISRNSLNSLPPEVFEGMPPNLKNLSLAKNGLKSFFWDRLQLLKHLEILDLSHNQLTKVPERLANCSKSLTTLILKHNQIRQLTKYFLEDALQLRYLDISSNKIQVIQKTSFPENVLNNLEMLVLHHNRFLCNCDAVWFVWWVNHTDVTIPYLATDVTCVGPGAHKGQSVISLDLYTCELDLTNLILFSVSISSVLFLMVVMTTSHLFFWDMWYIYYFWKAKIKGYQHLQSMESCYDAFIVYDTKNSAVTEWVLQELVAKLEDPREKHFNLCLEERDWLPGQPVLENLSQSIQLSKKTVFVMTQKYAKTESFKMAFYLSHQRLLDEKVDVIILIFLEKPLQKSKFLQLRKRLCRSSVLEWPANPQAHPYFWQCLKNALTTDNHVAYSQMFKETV
Procedure: Modified and unmodified immunoregulatory polynucleotides (IRPs) (i.e., polynucleotides containing at least one modified or unmodified IRS) or control samples were assayed for immunoregulatory (IR) activity of innate immune responses on human and mouse cells.
For mouse cell assays, spleens from 6-12 week-old BALB/c mice spleen were harvested and mechanically dispersed by forcing the digested fragments through metal screens. The dispersed splenocytes were pelleted by centrifugation, then resuspended in fresh medium (RPMI 1640 with 10% fetal calf serum, plus 50 units/mL penicillin, 50 μg/mL streptomycin, 2 mM glutamine, and 0.05 mM β-mercaptoethanol). In a dose-dependent manner, the cells were then stimulated with […] of 1018 ISS (TLR9 ligand; 5′-[…]-3′ (SEQ ID NO:122)) or 1 μM of R848 (TLR7 ligand; a small molecule, an imidazoquinoline also called resiquimod) either alone or in the presence of the tested IRPs. At 48 hours, supernatants were collected and cytokine levels, IL-6, were measured using immunoassays. […]

Row | Compound | TLR7 dependent cell responses [1] | TLR9 dependent cell responses [2] | also measured
1 | 5′-TGCTTGCAAGCTTGCTAGCA-3′ (chemistry not given here) [SEQ ID NO:34] | The same is also true | The same is also true | 
2 | OCCCCCCCCCCCCO [1,12-dihydroxydodecane] |  |  | solubility [3]: < 5000 µg/mL
3 | 5′-TGCTTGCAAGCTAGCAAGCA-HEG-TCCTGGAGGGGTTGT-3′ (TGCTTGCAAGCTAGCAAGCATCCTGGAGGGGTTGT; Two nucleotide segments joined by a hexaethylene glycol (HEG) spacer, nucleotide chemistry not given here) [SEQ ID NO:68] | very active in inhibiting | very active in inhibiting | 
4 | 5′-TCCTGGAGGGGTTGT-3′ (chemistry not given here) [SEQ ID NO:17] |  | greater inhibitory activity | 
5 | 5′-TGCTTGCAAGCTAGCAAGCA-3′ (chemistry not given here) [SEQ ID NO:33] | inhibits |  | 
6 | C[C@]12CCC(=O)C=C1CC[C@@H]1[C@@H]2[C@@H](O)C[C@@]2(C)[C@H]1CC[C@]2(O)C(=O)CO [hydroxycortisone, reference compound] |  |  | EC50 ([4]; in the presence of CpG-C ISS C274): 2 µM; EC50 ([4]; in the presence of HSV (HSV-1 KOS strain)): 0.15 µM; EC50 ([4]; in the presence of HSV and SEQ ID NO:123): 0.004 µM; EC50 ([4]; in the presence of influenza virus and SEQ ID NO:123): 0.022 µM; EC50 ([4]; in the presence of influenza virus): 4.5 µM; EC50 ([4]; in the presence of the ISS and SEQ ID NO:123): 0.085 µM
7 | 5′-TGCTTGCAAGCTTGCAAGCA-3′ (chemistry not given here) [SEQ ID NO:27] | inhibits |  | 
8 | 5′-UGC UCC UGG AGG GGU UGU-3′ (DNA UGCUCCUGGAGGGGUUGU; all 2'-O-methyl, backbone not given here) [SEQ ID NO:135, all nucleotides modified with a 2′-O-Me modification] |  |  | IL-6 levels compared to unmodified SEQ ID NO:123 [5]: significant decrease
9 | 5′-TGCTTGCAAGCTTGCTAGCA-HEG-TCCTGGAGGGGTTGT-3′ (TGCTTGCAAGCTTGCTAGCATCCTGGAGGGGTTGT; Two nucleotide segments joined by a hexaethylene glycol (HEG) spacer, nucleotide chemistry not given here) [SEQ ID NO:69] | The same is also true | The same is also true | 
